Structures can show the parent of a compound that is named as a salt.
Tests used:
[1] = target: Human LATS2 catalytic domain (Homo sapiens (Human), UniProt Q9NRM7); experiment: LATS2 High ATP HTRF Assay; assay type: biochemical; conditions: no asterisk: LATS2 High ATP HTRF Assay, 5000 μM ATP, 0.05 nM LATS2
Description: Human LATS2 catalytic domain which contains the amino acids G553-V1088 (accession NP_055387) was purified in-house. The LATS2 catalytic domain was co-purified with Mob1b (accession NP_775739). The LATS2 biochemical HTRF assay was performed using the HTRF KinEASE-STK S1 Kit (Cisbio, Cat #62ST1PEC), following the protocol from the manufacturer. Compounds were dispensed by the Echo Liquid Handler (Labcyte) into a white 384-well plate (PerkinElmer, Cat #6008289). 3 uL of 2×LATS2 enzyme solution was added to the compounds, following by a 10 minute incubation at room temperature. Then, 2×ATP and STK S1 peptide solution was added to initiate the one hour enzyme reaction at room temperature. The final condition of the reaction was 0.2 nM LATS2, 50 μM ATP, 0.5 μM STK S1 peptide in 50 mM HEPES pH7.2, 10 mM MgCl2, 0.1% BGG, 0.005% Brij-35, 1 mM DTT. The reaction was quenched by adding 6 uL of the detection mixture which contained Streptavidin XL665 and STK Antibody-Cryptate (Cisbio), incubate for 1 hour at room temperature. The HTRF (665 nm/620 nm) signal was read on the Envision plater reader (PerkinElmer). The IC50 values were determined by fitting the % inhibition with a nonlinear four-parameter logistical equation. The Ki values were calculated using the Cheng-Prusoff equation for a competitive inhibitor, IC50═Ki (1+S/Km)+M [E] with ATP Km for LATS2=105 μM.
The LATS2 high ATP HTRF assay was performed using the same protocol as the Standard LATS2 HTRF assay. The final condition of the reaction was 0.05 nM LATS2, 5000 μM ATP, 0.5 μM STK S1 peptide in 50 mM HEPES pH7.2, 10 mM MgCl2, 0.1% BGG, 0.005% Brij-35, 1 mM DTT and the 2 hours enzyme reaction at room temperature.

[2] = tested on: TAZ nuclear translocation in SW1990 cells; experiment: TAZ Nuclear Translocation Assay; assay type: cell-based; conditions: Homo sapiens, 4 hours
Description: The SW1990 cells (ATCC, CRL2172) were seeded at 5000 cells/well by adding 30 μL/well of cells in RPMI1640, 10% FBS, 2 mM glutamine culture media to a 384-well plate (Greiner 781091). The cells were incubated overnight at 37° C. Next day, test compounds were directly added to the cells using the Echo Liquid Handler (Labcyte), incubate at 37° C. for 4 hours. The cells were fixed with 4% paraformaldehyde and incubate for 20 minutes at room temperature. After washing three times with 100 μL PBS, 0.5% Triton X-100 was added to permeabilize the cells, incubate at room temperature for 5 minutes, following by washing the cells three times with PBS. 3% BSA was added to the cells, incubate for one hour at room temperature, following by washing three times with PBS. 50 μL of 1:750 diluted rabbit Anti-TAZ (Cell signaling D316D) in 3% BSA was added to the cells, incubate at 4° C. overnight. Next day, after washing the cells three times with PBS, 50 μL of 1:1250 diluted donkey anti-Rabbit, Alexa Fluor 488 (Invitrogen A21206) and 1:6250 diluted Hoechst 33342 (Molecular Probes H-21492) in 3% BSA was added to the cells, incubate at room temperature for one hour. The cells were washed three times with PBS, then image with the CellInsight CX7 High-Content Imager. The ratio of nuclear mean fluorescence intensity and cytoplasmic ring region mean fluorescence intensity was calculated. The % inhibition was normalized using DMSO as 0% inhibition and an inhibitor control as 100% inhibition. The EC50 values were calculated by fitting the % inhibition with a nonlinear four-parameter logistical equation.

Sequence of Human LATS2 catalytic domain (Q9NRM7 553-1088): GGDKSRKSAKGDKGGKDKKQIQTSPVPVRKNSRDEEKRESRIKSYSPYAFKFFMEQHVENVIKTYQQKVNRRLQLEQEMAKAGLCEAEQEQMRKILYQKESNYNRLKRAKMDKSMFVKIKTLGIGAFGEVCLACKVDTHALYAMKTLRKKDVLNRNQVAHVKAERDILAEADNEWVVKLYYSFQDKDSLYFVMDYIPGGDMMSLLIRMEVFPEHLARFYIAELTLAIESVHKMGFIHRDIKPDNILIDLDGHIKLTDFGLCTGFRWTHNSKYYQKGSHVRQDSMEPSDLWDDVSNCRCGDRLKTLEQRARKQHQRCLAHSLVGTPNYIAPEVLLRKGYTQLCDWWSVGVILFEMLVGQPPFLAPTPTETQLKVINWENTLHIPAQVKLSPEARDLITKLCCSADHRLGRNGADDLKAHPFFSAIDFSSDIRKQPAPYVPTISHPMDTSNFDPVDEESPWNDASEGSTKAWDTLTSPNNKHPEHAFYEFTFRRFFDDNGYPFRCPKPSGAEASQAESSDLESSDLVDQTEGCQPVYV
Sequence of Human LATS2 catalytic domain (Q7L9L4 whole entry partner, the tested form may be a part): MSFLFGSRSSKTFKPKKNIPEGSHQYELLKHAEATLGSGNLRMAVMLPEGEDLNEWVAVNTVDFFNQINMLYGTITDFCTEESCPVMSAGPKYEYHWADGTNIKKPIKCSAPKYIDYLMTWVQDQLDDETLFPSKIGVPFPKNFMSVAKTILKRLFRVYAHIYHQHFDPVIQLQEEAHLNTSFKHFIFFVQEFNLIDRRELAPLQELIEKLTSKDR

Row | SMILES | Ki [1] [nM] | EC50 [2] [nM]
1 | CN1CC2(CCN(c3nc(-c4ccncc4)nc4cnccc34)CC2)CC1CO (racemic) [Example 212, (2-methyl-8-(2-(pyridin-4-yl)pyrido[3,4-d]pyrimidin-4-yl)-2,8-diazaspiro[4.5]decan-3-yl)methanol] | 0.41 | 2500
2 | c1cc(-c2nc(N3CCC4(CC3)CC3COCCN3C4)c3ccncc3n2)ccn1 (racemic) [Example 218, 1-(2-(pyridin-4-yl)pyrido[3,4-d]pyrimidin-4-yl)hexahydrospiro[piperidine-4,7′-pyrrolo[2,1-c][1,4]oxazine]] | 4.3 | 6800
3 | Cc1n[nH]cc1-c1nc(N2CCC3(CCN(C[C@@H](C)O)C3)CC2)c2ccncc2n1 (single isomer, unassigned) [Compound 145] | 0.039 | 940
4 | O[C@@H]1COC[C@H]1N1CCC2(CCN(c3nc(-c4ccncc4)nc4cnccc34)CC2)C1 (single isomer, unassigned) [Compound 176] | 0.93 | 1790
5 | O[C@H]1COC[C@@H]1N1CCC2(CCN(c3nc(-c4ccncc4)nc4cnccc34)CC2)C1 (single isomer, unassigned) [Compound 177] | 0.39 | 2500
6 | O[C@@H]1CC[C@@H]1N1CCC2(CCN(c3nc(-c4ccncc4)nc4cnccc34)CC2)C1 (single isomer, unassigned) [Compound 180] | 1.38 | 1300
7 | O[C@H]1CC[C@H]1N1CCC2(CCN(c3nc(-c4ccncc4)nc4cnccc34)CC2)C1 (single isomer, unassigned) [Compound 181] | 1.87 | 1900
8 | Cc1n[nH]cc1-c1nc(N2CCC3(CC2)CCN([C@@H]2CCC[C@H]2O)C3)c2ccncc2n1 (single isomer, unassigned) [Compound 184] | 0.037 | 1400
9 | Cc1[nH]ncc1-c1nc(N2CCC3(CC2)CCN([C@H]2CCC[C@@H]2O)C3)c2ccncc2n1 (single isomer, unassigned) [Compound 185] | 0.047 | 860
10 | Cc1[nH]ncc1-c1nc(N2CCC3(CC2)CCN([C@@H]2CC[C@H]2O)C3)c2ccncc2n1 (single isomer, unassigned) [Example 228] | 0.067 | 2700
11 | Cc1[nH]ncc1-c1nc(N2CCC3(CC2)CCN([C@H]2CC[C@@H]2O)C3)c2ccncc2n1 (single isomer, unassigned) [Example 229] | 0.063 | 2100
12 | Cc1[nH]ncc1-c1nc(N2CCC3(CC2)CCN([C@@H]2CC[C@@H]2O)C3)c2ccncc2n1 (single isomer, unassigned) [Example 230] | 0.043 | 1000
13 | Cc1[nH]ncc1-c1nc(N2CCC3(CC2)CCN([C@H]2CC[C@H]2O)C3)c2ccncc2n1 (single isomer, unassigned) [Example 231] | 0.11 | 900
14 | NS(=O)(=O)CCN1CCC2(CCN(c3nc(-c4ccncc4)nc4cnccc34)CC2)C1 [Compound 109, 2-(8-(2-(pyridin-4-yl)pyrido[3,4-d]pyrimidin-4-yl)-2,8-diazaspiro[4.5]decan-2-yl)ethanesulfonamide] | 0.043 | 3800
15 | CC(C)N1CCC2(CCN(c3nc(-c4ccncc4)nc4cnccc34)CC2)C1 [Compound 117, 4-(2-isopropyl-2,8-diazaspiro[4.5]decan-8-yl)-2-(pyridin-4-yl)pyrido[3,4-d]pyrimidine] | 0.41 | 1600
16 | CC(=O)NCCN1CCC2(CCN(c3nc(-c4ccncc4)nc4cnccc34)CC2)C1 [Compound 123, N-(2-(8-(2-(pyridin-4-yl)pyrido[3,4-d]pyrimidin-4-yl)-2,8-diazaspiro[4.5]decan-2-yl)ethyl)acetamide] | 1.09 | 2100
17 | CS(=O)(=O)NCCN1CCC2(CCN(c3nc(-c4ccncc4)nc4cnccc34)CC2)C1 [Compound 126, N-(2-(8-(2-(pyridin-4-yl)pyrido[3,4-d]pyrimidin-4-yl)-2,8-diazaspiro[4.5]decan-2-yl)ethyl)methanesulfonamide] | 0.11 | 960
18 | NC(=O)CN1CCC2(CCN(c3nc(-c4ccncc4)nc4cnccc34)CC2)C1 [Compound 130, 2-(8-(2-(pyridin-4-yl)pyrido[3,4-d]pyrimidin-4-yl)-2,8-diazaspiro[4.5]decan-2-yl)acetamide] | 0.45 | 1200
19 | NC(=O)CCN1CCC2(CCN(c3nc(-c4ccncc4)nc4cnccc34)CC2)C1 [Compound 132, 3-(8-(2-(pyridin-4-yl)pyrido[3,4-d]pyrimidin-4-yl)-2,8-diazaspiro[4.5]decan-2-yl)propanamide] | 0.25 | 2400

Stronger by EC50 [2], values ahead:

Row | Ki [1] [nM] | EC50 [2] [nM] | SMILES
20 | 0.14 | 630 | c1cc(-c2nc(N3CCC4(CC3)CCN(C3CCOC3)C4)c3ccncc3n2)ccn1 (racemic) [Compound 111, 2-(pyridin-4-yl)-4-(2-(tetrahydrofuran-3-yl)-2,8-diazaspiro[4.5]decan-8-yl)pyrido[3,4-d]pyrimidine]
21 | 0.13 | 490 | FCC1CC2(CCN(c3nc(-c4ccncc4)nc4cnccc34)CC2)CN1 (racemic) [Example 216, 4-(3-(fluoromethyl)-2,8-diazaspiro[4.5]decan-8-yl)-2-(pyridin-4-yl)pyrido[3,4-d]pyrimidine]
22 | 0.35 | 780 | COCC1CC2(CCN(c3nc(-c4ccncc4)nc4cnccc34)CC2)CN1C (racemic) [Example 217, 4-(3-(methoxymethyl)-2-methyl-2,8-diazaspiro[4.5]decan-8-yl)-2-(pyridin-4-yl)pyrido[3,4-d]pyrimidine]
23 | 0.58 | 740 | C[C@H](CO)N1CCC2(CCN(c3nc(-c4ccncc4)nc4cnccc34)CC2)C1 (single isomer, unassigned) [Compound 103]
24 | 0.53 | 450 | C[C@@H](CO)N1CCC2(CCN(c3nc(-c4ccncc4)nc4cnccc34)CC2)C1 (single isomer, unassigned) [Compound 104]
25 | 0.086 | 690 | Cc1n[nH]cc1-c1nc(N2CCC3(CCN(C[C@H](C)O)C3)CC2)c2ccncc2n1 (single isomer, unassigned) [Compound 144]
26 | 0.45 | 570 | O[C@H]1CC[C@@H](N2CCC3(CCN(c4nc(-c5ccncc5)nc5cnccc45)CC3)C2)C1 (single isomer, unassigned) [Compound 169]
27 | 0.29 | 380 | O[C@@H]1CC[C@H](N2CCC3(CCN(c4nc(-c5ccncc5)nc5cnccc45)CC3)C2)C1 (single isomer, unassigned) [Compound 170]
28 | 0.1 | 740 | O[C@@H]1CC[C@H]1N1CCC2(CCN(c3nc(-c4ccncc4)nc4cnccc34)CC2)C1 (single isomer, unassigned) [Compound 179]
29 | 0.32 | 230 | COC[C@H]1CC2(CCN(c3nc(-c4ccncc4)nc4cnccc34)CC2)CN1 (single isomer, unassigned) [Example 221]
30 | 0.1 | 340 | COC[C@@H]1CC2(CCN(c3nc(-c4ccncc4)nc4cnccc34)CC2)CN1 (single isomer, unassigned) [Example 222]
31 | 0.03 | 430 | c1cc(-c2nc(N3CCC4(CC3)CCN(C3CCCCC3)C4)c3ccncc3n2)ccn1 [Compound 119, 4-(2-cyclohexyl-2,8-diazaspiro[4.5]decan-8-yl)-2-(pyridin-4-yl)pyrido[3,4-d]pyrimidine]
32 |  | 130 | COc1cncc2nc(-c3ccncc3)nc(N3CCC4(CCN(C)C4)CC3)c12 [Compound 252, 5-Methoxy-4-(2-methyl-2,8-diazaspiro[4.5]decan-8-yl)-2-(pyridin-4-yl)pyrido[3,4-d]pyrimidine formate]

From patent US20240174696A1, “2,8-DIAZASPIRO[4.5]DECANE COMPOUNDS” (Genentech, Inc., priority 2021, published 2024)
